Measurements from article PMC9986306, “Beyond CBD: Inhibitory effects of lesser studied phytocannabinoids on human voltage-gated sodium channels” (Frontiers in Physiology, 2023).

Tests used:
[1] = biological target: T1, human NaV1.6 channel (SCN8A, CHO cells) (Homo sapiens, UniProt Q9UQD0); assay: Planar patch-clamp, inhibition of peak sodium current (IC50 protocol); type: cell-based; settings: mean ± SEM
T1 construct: expressed in transfected cells
Method: (§1) HEK293T cells stably expressing SCN1A or SCN2A and CHO cells stably expressing SCN8A or SCN9A were maintained as previously described ([Richards et al., 2018]; [Milligan et al., 2022]).
(§2) Patch-clamp recordings were made using a Patchliner® (Nanion Technologies, Munich, Germany) in the whole-cell configuration as previously described ([Richards et al., 2018]; [Milligan et al., 2022]). Briefly, cells were prepared in suspension at a density of 1 × 10^6-5 × 10^7 cells/mL. The external recording solution comprised (in mM): 140 NaCl, 4 KCl, 1 MgCl2, 2 CaCl2, 5 D-glucose, 10 HEPES, pH 7.4 with NaOH, ∼295 mOsm. The internal recording solution comprised (in mM): 50 CsCl, 60 CsF, 10 NaCl, 20 EGTA, 10 HEPES, pH 7.2 with CsOH, ∼285 mOsm. Medium single-hole planar NPC-16 chips with an average resistance of ∼2.5 MΩ were used. Chip and whole-cell capacitance were fully compensated, and 50% series resistance compensation applied. Recordings were acquired at 50 kHz with the low pass filter set to 10 kHz in PATCHMASTER (HEKA Instruments, NY, United States) and performed at 27°C. Offline analysis was performed using Microsoft Excel, MatLab R2019a (MathWorks) and GraphPad Prism 8 (Molecular Devices).
To determine half-maximal inhibitory concentrations (IC50), cells were held at −80 mV, stepped to −120 mV for 200 ms followed by 50 ms test depolarization to 0 mV every 2 s for 30 s in the presence of vehicle control (DMSO). The cells were then exposed to an individual phytocannabinoid (CBD, CBGA, CBDVA, CBG, CBCA or CBC) at concentrations between 0.1 and 100 μM, sequentially for 5 min. Currents for individual cells were averaged over 24 s periods directly before application and following a 5 min exposure of compound. Leak subtraction was applied before normalization of current amplitude. Normalized mean data were fit to the Hill equation.

[2] = system: NaV1.1, NaV1.2, NaV1.6 and NaV1.7 channels; assay: Planar patch-clamp, IC50 values summarised across the four isoforms; type: cell-based, human; settings: range over NaV1.1, NaV1.2, NaV1.6, NaV1.7; read-out: IC50 values determined here (range over isoforms)
Method: as §1
as §2, with “Devices). […]” for “Devices).”

[3] = system: Scn1a+/− mouse model of DS; parameters: method as in Anderson et al., 2021a; Anderson et al., 2021b; settings: Scn1a+/− mice, ref Anderson et al., 2021a, 2021b; cited from earlier work
6-Hz acute seizure model = system: 6-Hz acute seizure model; parameters: method as in Anderson et al., 2021b; settings: monotherapy; ref Anderson et al., 2021b; cited from earlier work

T1 sequence (Q9UQD0 whole entry): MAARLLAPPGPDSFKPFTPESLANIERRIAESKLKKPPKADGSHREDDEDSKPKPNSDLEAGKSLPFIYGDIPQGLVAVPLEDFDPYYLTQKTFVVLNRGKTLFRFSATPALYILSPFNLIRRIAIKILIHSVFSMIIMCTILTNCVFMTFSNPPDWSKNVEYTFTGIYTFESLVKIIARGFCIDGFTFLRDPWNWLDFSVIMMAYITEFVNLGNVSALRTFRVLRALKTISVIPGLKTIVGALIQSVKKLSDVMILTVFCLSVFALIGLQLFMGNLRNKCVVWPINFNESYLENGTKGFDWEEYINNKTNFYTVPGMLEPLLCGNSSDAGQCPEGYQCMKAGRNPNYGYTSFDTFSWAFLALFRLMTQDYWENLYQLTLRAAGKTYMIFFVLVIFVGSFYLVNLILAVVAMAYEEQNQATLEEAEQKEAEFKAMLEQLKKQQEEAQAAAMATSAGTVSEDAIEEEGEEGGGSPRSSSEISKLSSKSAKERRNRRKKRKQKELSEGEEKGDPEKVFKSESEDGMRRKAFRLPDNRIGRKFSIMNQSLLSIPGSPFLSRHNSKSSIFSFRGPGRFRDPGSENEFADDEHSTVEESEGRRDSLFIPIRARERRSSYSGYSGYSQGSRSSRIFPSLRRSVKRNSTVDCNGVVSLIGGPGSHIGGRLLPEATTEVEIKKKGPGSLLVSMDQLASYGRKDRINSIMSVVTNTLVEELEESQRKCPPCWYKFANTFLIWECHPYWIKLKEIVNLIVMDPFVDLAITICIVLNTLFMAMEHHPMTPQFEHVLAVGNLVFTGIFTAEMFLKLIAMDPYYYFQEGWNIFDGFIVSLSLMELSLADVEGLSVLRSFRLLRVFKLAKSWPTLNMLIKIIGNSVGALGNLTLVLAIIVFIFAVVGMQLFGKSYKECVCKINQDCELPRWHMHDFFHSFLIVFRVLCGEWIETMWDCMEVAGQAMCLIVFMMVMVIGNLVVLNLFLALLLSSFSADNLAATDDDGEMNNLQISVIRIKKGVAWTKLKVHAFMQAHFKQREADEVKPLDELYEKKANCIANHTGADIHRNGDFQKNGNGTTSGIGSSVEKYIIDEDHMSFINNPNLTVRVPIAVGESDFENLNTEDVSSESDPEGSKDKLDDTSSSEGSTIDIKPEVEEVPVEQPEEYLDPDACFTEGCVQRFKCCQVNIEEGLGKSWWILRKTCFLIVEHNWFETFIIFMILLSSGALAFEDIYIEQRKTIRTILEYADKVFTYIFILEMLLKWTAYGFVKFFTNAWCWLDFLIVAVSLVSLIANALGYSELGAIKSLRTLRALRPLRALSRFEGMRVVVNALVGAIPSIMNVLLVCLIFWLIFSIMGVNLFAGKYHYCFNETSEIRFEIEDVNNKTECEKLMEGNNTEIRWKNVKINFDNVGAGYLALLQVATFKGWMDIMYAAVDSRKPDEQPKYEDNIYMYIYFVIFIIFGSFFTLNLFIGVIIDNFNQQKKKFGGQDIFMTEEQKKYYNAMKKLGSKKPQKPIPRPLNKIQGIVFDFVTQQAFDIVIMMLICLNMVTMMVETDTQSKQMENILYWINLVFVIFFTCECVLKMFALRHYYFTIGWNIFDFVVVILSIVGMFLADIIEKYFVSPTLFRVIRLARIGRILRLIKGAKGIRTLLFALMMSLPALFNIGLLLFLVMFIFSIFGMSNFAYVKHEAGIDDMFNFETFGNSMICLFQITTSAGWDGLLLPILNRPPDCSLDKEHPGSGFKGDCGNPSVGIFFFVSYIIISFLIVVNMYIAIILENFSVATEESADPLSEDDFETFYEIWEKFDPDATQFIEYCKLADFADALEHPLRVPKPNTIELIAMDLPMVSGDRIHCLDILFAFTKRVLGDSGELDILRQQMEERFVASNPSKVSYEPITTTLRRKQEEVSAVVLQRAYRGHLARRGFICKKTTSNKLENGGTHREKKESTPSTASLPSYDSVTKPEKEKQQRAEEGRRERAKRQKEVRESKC

## CCCCCc1cc(O)c(C/C=C(\C)CCC=C(C)C)c(O)c1C(=O)O [CBGA, cannabigerolic acid]
[1]; NaV1.6 concentration-response
  Slope (Hill slope coefficient): 2.3 ± 0.6
[1]; NaV1.6 peak current, 0.1–100 µM, 5 min exposure
  IC50: 12 ± 1.2 µM
[2]
  IC50: 12 to 16.4 µM
[3]
  Effect against hyperthermia-induced seizures: anti-convulsant properties
6-Hz acute seizure model
  Effect in 6-Hz acute seizure model: proconvulsive effects
